Data from patent publication US20080311613A1, “ARTIFICIAL SKIN SURFACE FILM LIQUIDS” (The Government of the U.S.A. as represented by the …, priority 2007, published 2008).
≈ marks a conversion by molar mass, not a printed value. Like-named read-outs stand apart in the source and are kept apart here.

Legend:
[1] = Dissolution of vitamin constituents during preparation of artificial sweat; conditions: for dissolution on addition to the artificial sweat solution: before pH adjustment (pH 3.8 as prepared), 36° C.
Experimental: (§1) This large initial volume was useful in promoting dissolution of the constituents of the artificial sweat. […] Next, the desired masses of electrolytes and other ionic constituents (see Table 2) were added to the flask. Upon addition of the electrolytes and ionic constituents, the concentrations of chloride, calcium, and iron were measured to assess whether they matched predictions from weighing: 1.67×10^−2 M chloride, 6.93×10^−3 M calcium, and 0.54 ppm iron. Next, organic acids and carbohydrates were added to the solution (see Table 2) and the stability of chloride, calcium, and iron concentrations verified. Amino acids were added (see Table 2) then calcium and iron concentrations verified; chloride ion concentration was measured to determine if it matched the predicted value (1.7×10^−2 M) from weighing electrolytes, ionic constituents, and hydrogen chloride salts of some amino acids. Nitrogenous substances were added (see Table 2) and chloride, calcium, and iron concentrations re-verified.
(§2) Vitamin constituents were added to the solution last (see Table 2).
(§3) The pH of the artificial sweat solution was raised from 3.8 (as prepared) to a final pH of 5.3 by adding 5 M sodium hydroxide dropwise while monitoring using a calibrated pH electrode (InLab 413, Mettler-Toledo, Schwerzenbach, Switzerland) connected to a multi-meter (Seven Multi, Mettler-Toledo). […] The final volume of the solution was then brought up to 1.0 L using 18 megohm-cm distilled and deionized water and the final pH verified. To minimize opportunity for microbial growth, the final sweat solution was filtered through a 0.2 μm pore size filter (Cat. No. SCGVU11RE, Millipore Corp., Billerica, Mass.).

[2] = water, cited from earlier work
physchem = conditions: artificial sweat, 36 °C
Experimental: as §1, §2, §3

[3] = Long-term stability of artificial sebum by thin-layer chromatography; assay type: physicochemical; conditions: dry at 32° C., absence of vitamin E
Experimental: Lipids and formulation of synthetic sebum. Cholesteryl oleate, oleoyl oleate, palmityl palmitate, cholesterol and vitamin E ((±)-α-tocopherol) were purchased from Sigma-Aldrich (St. Louis, Mo.). Squalene and stearic acid were from Acros Organics (Geel, Belgium). Triolein and tristearin were purchased from MP Biochemicals (Solon, Ohio), and oleic acid was from Fisher Scientific (Fairlawn, N.J.). […] All nine lipids were dissolved in a 2:1 co-solvent mixture of chloroform and methanol and divided into two portions, one of which received vitamin E at 0.1% by weight to mimic human sebum content. After combining and mixing, portions of lipid solution were transferred to 16×125 mm glass tubes equipped with Teflon-lined screw caps. One set of tubes with lipid solution was maintained at 4° C. to characterize storage using refrigeration. […]
Thin-layer chromatography. All samples were analyzed using thin layer chromatography. Glass plates (20×20 cm) coated with 0.25-mm-thick silica gel G (Adsorbosil-plus-1; Alltech Associates; Deerfield Ill.) were washed with chloroform:methanol, 2:1, activated in a 110° C. oven, and the adsorbent was scored into 6-mm-wide lanes. […] After two hrs, charring was complete, and the chromatograms were quantitated by photodensitometry. […]

In the case of `O=C(O)c1cccnc1` [nicotinic acids, Nicotinic Acid (C6H5NO2)], the “dissolution on addition to the artificial sweat solution” value [1] is reported as “did not dissolve completely”.

In the case of `CC(C)(CO)[C@@H](O)C(=O)NCCC(=O)O` [pantothenic, D-Pantothenic Acid (C9H17NO5)], the “dissolution on addition to the artificial sweat solution” value [1] is reported as “did not dissolve completely”.

In the case of `Cc1cc2nc3c(=O)[nH]c(=O)nc-3n(C[C@H](O)[C@H](O)[C@H](O)COP(=O)(O)O)c2cc1C` [riboflavin 5′-(dihydrogen phosphate), reference compound], the solubility ([2]; pH=5.6) is listed as 68 mg/mL.

In the case of `Cc1cc2nc3c(=O)[nH]c(=O)nc-3n(C[C@H](O)[C@H](O)[C@H](O)CO)c2cc1C` [riboflavin, Riboflavin (C17H20N4O6)], the solubility [2] is listed as 0.3 mg/mL (≈ 797 µM), the solubility (physchem) is listed as at least 2000 µM and the “concentration in artificial sweat relative to that predicted by solubility in water” value ([1]; artificial sweat vs water) is listed as “two orders of magnitude greater”.

In the case of `CC(C)=CCC/C(C)=C/CC/C(C)=C/CC/C=C(\C)CC/C=C(\C)CCC=C(C)C` [squalene], the “day by which completely oxidized” value [3] is reported as at most 21 days.
